The values that follow come from US6117859A, “Method of relieving chronic inflammation by using 5-alkylsulfonylsalicylanilides” (The Research Foundation of State University of New York, priority 1999, dated 2000).

Series [1] deals with ear weight gain produced by multiple doses of TPA in mice. Briefly: Chronic (multiple dose) TPA mouse ear inflammation assay, ear weight gain. It is filed as in vivo, mouse (female CD-1). Particulars: for % Inhibition of Ear Weight Gain, Actual / % Inhibition of Ear Weight Gain, Relative to Hydrocortisone (HCV) = 100%: multiple doses of TPA; for % Inhibition of Ear Weight Gain, Relative to Hydrocortisone (HCV) = 100%: head prints 1.25 eg/ear. The procedure: The acute skin inflammation model described in Example 1, tests the ability of a compound to prevent inflammation and thus must be applied prophylactically. Most clinical situations, however, are present as chronic inflammatory conditions. […] The effects of the compounds of the present invention and Salifluor on chronically inflamed skin was measured in the mouse ear model that utilizes multiple TPA doses over a 10-day period to produce the inflammatory response.
The assay used female CD-1 mice (7-9 weeks of age). Following a 2-week quarantine, mice were randomly assigned to test groups (5 mice/groups). TPA (10 uL of 0.01 TPA in acetone) was administered to both the inner and outer surface of each ear (2μg/ear) on day 0,2,4,7, and 9 on protocol. On Day 7,8 and 9, two applications of test article were applied to each ear 2 and 4 hours after dosing with TPA. The test articles were administered in 10 uL aliquots to both the inner and outer surface of each ear (20 μl total/dose). […] Hydrocortisone-17-valerate (HCV, 20μg/ear) was employed as a positive control. Mice were sacrificed at Day 10 on protocol and uniform punch biopsies (approximately 8 mm dia.) were taken from each ear. While on protocol, dermal irritation was scored semiquantitatively at Day 1,3,5,8, and 10.
Inhibition of TPA stimulated increased ear weight was used as an initial measure of efficacy for all of the agents tested. One biopsy from each mouse was also quick frozen and stored at -70° C. for later assay of myleoperoxidase, an enzyme associated with infiltrating PMN, or other measure of efficacy. The remaining biopsy from each mouse treated with Trifluorosal or HCV was fixed in formalin and processed for histopathologic evaluation, including measurement of cellular infiltration (PMNs, endothelial cells, macrophages) and epidermal thickness at 20 random sites along the length of the specimen.
Initially, a dose-response curve for multiple doses of TPA to produce mouse ear weight gain was generated in order to determine the concentration of TPA to be employed in the inhibition studies. […] Another major difference between the multiple TPA dose (or chronic assay for inflammation) and the single TPA dose (or acute assay for inflammation) in the mouse ear is sensitivity to Non-steroidal antiinflammatory drugs (NSAIDs) and antihistamines.

Series [2] is described as follows: Solubility of representative compounds in various solvent systems. It is filed as physicochemical. The procedure:
The solubility of representative compounds of this invention in various solvent systems was determined. The solvents included ethanol, propylene glycol, SLS, Tween 80™ and combinations thereof.

The nature of series [3]: Stability in solution by HPLC (TMF-10, 40° C.). It is filed as physicochemical. Particulars: 0.3 mg/ml in 30% ethanolic water, four weeks. The procedure: An analytical method to determine concentration and stability of some representative compounds of this invention in solution employing high pressure liquid chromatography (HPLC) was developed and validated. Both isocratic and gradient mobile phases of acetonitrile, water and methanol were investigated on a C-18 silica reverse solid phase column (Zorbax). Results were obtained using a 12 minute gradient of 80% to 100% methanol/water at a flow rate of 1.5 ml/minutes. Detection was carried out by measuring absorbance at 280 nm. Under these conditions TMF-10 and TMC-l0 each produced symmetrical peaks with retention times of 7.5 and 3.0 minutes, respectively. TMF-8 and TMF-12 had retention times of 4 and 9 minutes respectively. […] The lowest detectable quantity measured for all three compounds was 5.0 ng.
A 0.3 mg/ml solution of TMF-10 in 30% ethanolic water was maintained at 40° C. for several weeks. At various times samples were analyzed for decomposition employing the HPLC method described in Example 2.

Series [4] can be described thus: Single dose oral tolerance in rats. It is filed as in vivo, rat (male weaning Sprague-Dawley). Particulars: single dose 2.5 or 0.75 g/kg in 5% CMC, 7 days. As to the method:
To test for tolerance of the administered compounds, male weaning Sprague-Dawley rats were fed in a single dose of 2.5 or 0.75 g/kg of TMF-12, TMF-10, TMC-10 or TPC-10 in 5% carboxymethyl cellulose (CMC) or CMC alone. […] At completion of the 7 day observation period, necropsies were performed on all animals.

For series [5] the following is noted: prior art compound; cited from earlier work.
The conditions of series [6]: in vivo; cited from earlier work.
The conditions of series [7]: prior art compound; cited from earlier work. This is another data set of the same source.
Where [8] appears, read: aqueous buffer, pH 10 K-buffer @ 35° C.
Setting [9] is: aqueous buffer, pH 10 Na-buffer @ 22° C.
Setting [10] is: organic solvent or mixture, Ethanol @ 19° C.
Setting [11] is: organic solvent or mixture, Propylene Glycol @ 20° C.

Consider `CCCCCCCCCCS(=O)(=O)c1ccc(O)c(C(=O)Nc2cccc(C(F)(F)F)c2)c1` [TMF-10], for which the results for the “Inhibition of ear weight gain” value in series [1] (5.0 mg/ear (printed 'mc/ear' for Trifluorosal)) and in series [1] (2.5 or 1.25 mg/ear (two values printed for three doses)) were 69.8% and 0.0%, respectively. Moreover, the “Activity in chronic assay (in words)” value in series [1] (1.25-5 mg/ear, remaining experiments) was “demonstrated consistent activity”. Further, the “% Inhibition of Ear Weight Gain, Actual” value in series [1] was 54.7%. For the same compound, the “% Inhibition of Ear Weight Gain, Relative to Hydrocortisone (HCV) = 100%” value in series [1] was 59.9%. Moreover, the solubility in series [2] (+0.5% tween 80) is 760 µg/mL; in series [2] (+1% sls), 920 µg/mL; in series [2] (+1.5% tween 80), 2020 µg/mL; in series [2] (+2% SLS + 0.5% Tween 80) it was 1350 µg/mL; in series [2] (+2% SLS + 1.0% Tween 80) it was 1910 µg/mL; in series [2] (+2% SLS + 2.0% Tween 80), 2870 µg/mL. The solubility in series [2] (+2% sls) is 1280 µg/mL; in series [2] (+3.0% tween 80) it was 4130 µg/mL; in series [2] (+4% sls) it was 2080 µg/mL; in series [2] (setting [8]), less than 0.1 µg/mL; in series [2] (setting [9]), 1.89 µg/mL; in series [2] (setting [10]), 44700 µg/mL. Further, the solubility in series [2] (setting [11]) came out at 1700 µg/mL; in series [2] (ph 10 na-buffer +0.5% sls, pH 10 Na-buffer @ 22° C. +0.5% SLS), 370 µg/mL. Besides, in series [3], the Decomposition in solution result is “no decomposition of TMF-10 was detected”. In addition, the Illness or deaths entry in series [4] was “No illness or deaths occurred”.
Take `CCCCCCCC(=O)c1ccc(O)c(C(=O)Nc2cccc(C(F)(F)F)c2)c1` [Salifluor, reference compound]: the “% Inhibition of Ear Weight Gain, Actual” value in series [1] was determined as 0%. Moreover, in series [1], the “% Inhibition of Ear Weight Gain, Relative to Hydrocortisone (HCV) = 100%” value turned out to be 0%. Further, the pKa in series [5] is on record as 6.1. Further, the solubility in series [2] (+1% sls) was determined as 230 µg/mL; in series [2] (+2% sls), 290 µg/mL; in series [2] (+4% sls), 380 µg/mL; in series [2] (setting [8]), 1.14 µg/mL; in series [2] (setting [9]), 3.91 µg/mL; in series [2] (setting [10]), 13000 µg/mL. In series [2] (setting [11]), the solubility came out at 550 µg/mL. Moreover, in series [6], the “Anti-inflammatory activity in clinical trials” value was “have been reported to have anti-inflammatory activity in clinical trials”. Besides, the “Solubility in aqueous solutions at neutral pH” value in series [7] is listed as “relatively insoluble in aqueous solutions at neutral pH”.

As a reminder, the solubility is the concentration that dissolves in the medium under given conditions. As a reminder, the pKa is the negative logarithm of the acid dissociation constant.
